Here are results for 16 molecules from ChEMBL document CHEMBL4024739, “Diversity-oriented sustainable synthesis of antimicrobial spiropyrrolidine/thiapyrrolizidine oxindole derivatives: New ligands for a metallo-β-lactamase from Klebsiella pneumonia” (2017).

In brackets after ≈: the same amount, converted by molar mass. Some results are limits rather than exact numbers.

Holding throughout (type): functional
One assay concerns Escherichia coli. Briefly: Antibacterial activity against Escherichia coli ATCC 9637 by spectrophotometric method. The conditions noted are these: W.
The test system of the next assay is Pseudomonas aeruginosa. The assay is described as follows: Antibacterial activity against Pseudomonas aeruginosa ATCC BAA-427 by spectrophotometric method.
The subject of assay [1] is Klebsiella pneumoniae. Briefly: Antibacterial activity against Klebsiella pneumoniae ATCC 27736 by spectrophotometric method.
Another assay deals with Staphylococcus aureus. The assay is described as follows: Antibacterial activity against Staphylococcus aureus ATCC 25923 by spectrophotometric method.
A further assay deals with Sporothrix schenckii. The assay is described as follows: Antifungal activity against Sporothrix schenckii by spectrophotometric method.
For a further assay, the system named is Aspergillus fumigatus. The assay is described as follows: Antifungal activity against Aspergillus fumigatus by spectrophotometric method.
A further assay relates to Cryptococcus neoformans. The assay is described as follows: Antifungal activity against Cryptococcus neoformans by spectrophotometric method.
In the next assay the test system is Candida parapsilosis. The assay is described as follows: Antifungal activity against Candida parapsilosis ATCC 22019 by spectrophotometric method. The conditions noted are these: Lodderomyces parapsilosis.
In the next assay the test system is Candida albicans. The assay is described as follows: Antifungal activity against Candida albicans by spectrophotometric method.
The subject of assay [2] is Trichophyton mentagrophytes. Briefly: Antifungal activity against Trichophyton mentagrophytes by spectrophotometric method.
For assay [3], the system named is Klebsiella pneumoniae. Briefly: Potency index, ratio of amphicillin MIC to compound MIC for Klebsiella pneumoniae ATCC 27736.
In assay [4] the test system is Klebsiella pneumoniae. Briefly: Potency index, ratio of gentamicin MIC to compound MIC for Klebsiella pneumoniae ATCC 27736.

As usually defined, the MIC is the smallest concentration in the dilution series that meets the test's criterion for growth inhibition. The low end stands for inhibition by little substance, the high end for a need for much substance. `CC1(C)S[C@@H]2[C@H](NC(=O)[C@H](N)c3ccccc3)C(=O)N2[C@H]1C(=O)O` [AMPICILLIN]: the minimum inhibitory concentration (MIC) against Escherichia coli came to 50 µg/mL (≈ 143 µM); against Pseudomonas aeruginosa, 50 µg/mL (≈ 143 µM); against Klebsiella pneumoniae [1], 0.39 µg/mL (≈ 1.12 µM); in the assay on Staphylococcus aureus it was 0.19 µg/mL (≈ 0.544 µM).
For `CCOC(=O)[C@]1(C#N)[C@@H](c2ccc(Cl)c(Cl)c2)CN(C)[C@@]12C(=O)Nc1c(C)cc(C)cc12`, the MIC with Sporothrix schenckii, in the assay with Escherichia coli, in the assay on Aspergillus fumigatus, in the assay with Pseudomonas aeruginosa, against Cryptococcus neoformans and against Candida parapsilosis was more than 50 µg/mL throughout. The MIC with Candida albicans was more than 50 µg/mL; in the assay with Klebsiella pneumoniae [1] it was 6.25 µg/mL (≈ 13.2 µM); in assay [2], 50 µg/mL (≈ 106 µM); in the assay with Staphylococcus aureus it was more than 50 µg/mL.
With `C[C@@H]1[C@H](O)[C@@H](C)/C=C/C=C/C=C/C=C/C=C/C=C/C=C/[C@H](O[C@@H]2O[C@H](C)[C@@H](O)[C@H](N)[C@@H]2O)C[C@@H]2O[C@](O)(C[C@@H](O)C[C@@H](O)[C@H](O)CC[C@@H](O)C[C@@H](O)CC(=O)O[C@H]1C)C[C@H](O)[C@H]2C(=O)O` [AMPHOTERICIN B], the minimal inhibitory concentration (MIC) is 0.12 µg/mL (≈ 0.13 µM) against Sporothrix schenckii; 0.5 µg/mL (≈ 0.541 µM) with Aspergillus fumigatus; 0.12 µg/mL (≈ 0.13 µM) in the assay on Cryptococcus neoformans; 0.12 µg/mL (≈ 0.13 µM) in the assay on Candida parapsilosis; 0.06 µg/mL (≈ 0.0649 µM) with Candida albicans; 0.12 µg/mL (≈ 0.13 µM) in assay [2].
As for GENTAMICIN, the MIC was determined as 0.78 µg/mL against Escherichia coli, 0.78 µg/mL in the assay on Pseudomonas aeruginosa, 0.78 µg/mL against Klebsiella pneumoniae [1] and 0.39 µg/mL with Staphylococcus aureus.
For `CCOC(=O)[C@]1(C#N)[C@@H](c2c(F)cccc2Cl)CN(C)[C@@]12C(=O)Nc1c(C)cc(C)cc12`, the MIC in the assay on Sporothrix schenckii is 25 µg/mL (≈ 54.8 µM); in the assay with Escherichia coli, more than 50 µg/mL; against Aspergillus fumigatus, 25 µg/mL (≈ 54.8 µM); in the assay on Pseudomonas aeruginosa, more than 50 µg/mL; in the assay on Cryptococcus neoformans, 50 µg/mL (≈ 110 µM); against Candida parapsilosis, 50 µg/mL (≈ 110 µM). Further, the minimum inhibitory concentration (MIC) was found to be 50 µg/mL (≈ 110 µM) against Candida albicans, 3.12 µg/mL (≈ 6.84 µM) with Klebsiella pneumoniae [1], 12.5 µg/mL (≈ 27.4 µM) in [2] and 12.5 µg/mL (≈ 27.4 µM) against Staphylococcus aureus.
Turning to `N#CC1(C#N)[C@@H](c2cccc([N+](=O)[O-])c2)C2CSCN2[C@@]12C(=O)Nc1ccccc12` (some centres not stated), the minimum inhibitory concentration (MIC) against Sporothrix schenckii, against Escherichia coli, with Aspergillus fumigatus, against Pseudomonas aeruginosa, in the assay on Cryptococcus neoformans and in the assay on Candida parapsilosis was more than 50 µg/mL each time. Also, the MIC was more than 50 µg/mL in the assay on Candida albicans, 0.19 µg/mL (≈ 0.455 µM) against Klebsiella pneumoniae [1], more than 50 µg/mL in [2] and more than 50 µg/mL against Staphylococcus aureus.
For `N#CC1(C#N)[C@@H](c2ccc(Cl)c(Cl)c2)C2CSCN2[C@@]12C(=O)Nc1ccccc12` (some centres not stated), the MIC against Sporothrix schenckii, against Escherichia coli, against Aspergillus fumigatus, in the assay with Pseudomonas aeruginosa, in the assay with Cryptococcus neoformans and against Candida parapsilosis was more than 50 µg/mL throughout. Further, the MIC is more than 50 µg/mL in the assay on Candida albicans, 0.005 µg/mL (≈ 0.0113 µM) with Klebsiella pneumoniae [1], 50 µg/mL (≈ 113 µM) in assay [2] and more than 50 µg/mL against Staphylococcus aureus. The Ratio worked out at 78 with Klebsiella pneumoniae [3] and 156 in the assay with Klebsiella pneumoniae [4].
`CCOC(=O)[C@]1(C#N)[C@@H](c2ccc(Cl)cc2)CN(C)[C@@]12C(=O)Nc1c(C)cc(C)cc12`: the MIC in the assay on Sporothrix schenckii was 50 µg/mL (≈ 114 µM); against Escherichia coli, more than 50 µg/mL; in the assay on Aspergillus fumigatus, 50 µg/mL (≈ 114 µM); in the assay on Pseudomonas aeruginosa, more than 50 µg/mL; against Cryptococcus neoformans, 50 µg/mL (≈ 114 µM); in the assay with Candida parapsilosis, 50 µg/mL (≈ 114 µM). In addition, the minimal inhibitory concentration (MIC) against Candida albicans stood at 50 µg/mL (≈ 114 µM); in the assay on Klebsiella pneumoniae [1], 1.56 µg/mL (≈ 3.56 µM); in [2] it was 50 µg/mL (≈ 114 µM); against Staphylococcus aureus it was 50 µg/mL (≈ 114 µM).
Regarding `CCOC(=O)[C@]1(C#N)[C@@H](c2cccs2)C2CSCN2[C@@]12C(=O)Nc1ccccc12` (some centres not stated), the MIC in the assay on Sporothrix schenckii, against Escherichia coli, against Aspergillus fumigatus, in the assay with Pseudomonas aeruginosa, with Cryptococcus neoformans and with Candida parapsilosis was more than 50 µg/mL in each case. For the same molecule, the minimum inhibitory concentration (MIC) in the assay on Candida albicans is more than 50 µg/mL; against Klebsiella pneumoniae [1] it was 0.09 µg/mL (≈ 0.211 µM); in assay [2], 50 µg/mL (≈ 117 µM); against Staphylococcus aureus it was more than 50 µg/mL.
As for `CCOC(=O)[C@]1(C#N)[C@@H](c2ccc(OC)cc2)CN(C)[C@@]12C(=O)Nc1c(C)cc(C)cc12`, the MIC with Sporothrix schenckii, against Escherichia coli, against Aspergillus fumigatus, against Pseudomonas aeruginosa, in the assay with Cryptococcus neoformans and against Candida parapsilosis was more than 50 µg/mL throughout. Further, the MIC against Candida albicans was more than 50 µg/mL; against Klebsiella pneumoniae [1] it was 25 µg/mL (≈ 57.7 µM); in [2] it was 50 µg/mL (≈ 115 µM); against Staphylococcus aureus, more than 50 µg/mL.
As to `CCOC(=O)[C@]1(C#N)[C@@H](c2c(F)cccc2Cl)CN(C)[C@@]12C(=O)Nc1ccc([N+](=O)[O-])cc12`, the MIC was more than 50 µg/mL in the assay with Sporothrix schenckii; more than 50 µg/mL in the assay on Escherichia coli; more than 50 µg/mL in the assay with Aspergillus fumigatus; more than 50 µg/mL in the assay on Pseudomonas aeruginosa; 50 µg/mL (≈ 106 µM) in the assay on Cryptococcus neoformans; 50 µg/mL (≈ 106 µM) against Candida parapsilosis. The MIC is 50 µg/mL (≈ 106 µM) against Candida albicans, 50 µg/mL (≈ 106 µM) against Klebsiella pneumoniae [1], more than 50 µg/mL in assay [2] and more than 50 µg/mL in the assay on Staphylococcus aureus.
On to `CCOC(=O)[C@]1(C#N)[C@@H](c2c(F)cccc2Cl)C2CSCN2[C@@]12C(=O)Nc1ccccc12` (some centres not stated), for which the minimum inhibitory concentration (MIC) with Sporothrix schenckii, against Escherichia coli, in the assay with Aspergillus fumigatus, in the assay on Pseudomonas aeruginosa, against Cryptococcus neoformans and against Candida parapsilosis was more than 50 µg/mL throughout. Moreover, the minimal inhibitory concentration (MIC) in the assay with Candida albicans is more than 50 µg/mL; with Klebsiella pneumoniae [1] it was 0.045 µg/mL (≈ 0.0954 µM); in assay [2] it was 50 µg/mL (≈ 106 µM); with Staphylococcus aureus it was more than 50 µg/mL.
As to `CN1C[C@H](c2ccc(Cl)c(Cl)c2)C(C#N)(C#N)[C@]12C(=O)Nc1ccc(Cl)cc12`, the minimal inhibitory concentration (MIC) was 50 µg/mL (≈ 116 µM) against Sporothrix schenckii; more than 50 µg/mL in the assay on Escherichia coli; more than 50 µg/mL with Aspergillus fumigatus; more than 50 µg/mL in the assay on Pseudomonas aeruginosa; more than 50 µg/mL against Cryptococcus neoformans; more than 50 µg/mL in the assay on Candida parapsilosis. In addition, the MIC in the assay with Candida albicans was more than 50 µg/mL; with Klebsiella pneumoniae [1], 6.25 µg/mL (≈ 14.5 µM); in assay [2], more than 50 µg/mL; against Staphylococcus aureus, more than 50 µg/mL.
On to `CCOC(=O)[C@]1(C#N)[C@@H](c2c(F)cccc2Cl)CN(C)[C@@]12C(=O)Nc1ccc(Cl)cc12`, for which the MIC against Sporothrix schenckii was 50 µg/mL (≈ 108 µM); with Escherichia coli, more than 50 µg/mL; in the assay on Aspergillus fumigatus, 50 µg/mL (≈ 108 µM); against Pseudomonas aeruginosa, more than 50 µg/mL; against Cryptococcus neoformans, 50 µg/mL (≈ 108 µM); in the assay with Candida parapsilosis, 50 µg/mL (≈ 108 µM). In addition, the minimum inhibitory concentration (MIC) against Candida albicans is 50 µg/mL (≈ 108 µM); against Klebsiella pneumoniae [1], 25 µg/mL (≈ 54.1 µM); in assay [2], 50 µg/mL (≈ 108 µM); with Staphylococcus aureus it was more than 50 µg/mL.
As for `OC(Cn1cncn1)(Cn1cncn1)c1ccc(F)cc1F` [FLUCONAZOLE], the minimum inhibitory concentration (MIC) came out at 2 µg/mL (≈ 6.53 µM) with Sporothrix schenckii; 2 µg/mL (≈ 6.53 µM) in the assay with Aspergillus fumigatus; 0.5 µg/mL (≈ 1.63 µM) with Cryptococcus neoformans; 1 µg/mL (≈ 3.27 µM) in the assay with Candida parapsilosis; 1 µg/mL (≈ 3.27 µM) against Candida albicans; 1 µg/mL (≈ 3.27 µM) in [2].
Regarding `CCOC(=O)[C@]1(C#N)[C@@H](c2ccc(Cl)c(Cl)c2)CN(C)[C@@]12C(=O)Nc1ccc(Cl)cc12`, the minimal inhibitory concentration (MIC) with Sporothrix schenckii, in the assay on Escherichia coli, against Aspergillus fumigatus, against Pseudomonas aeruginosa, with Cryptococcus neoformans and against Candida parapsilosis was more than 50 µg/mL in each case. Moreover, the minimum inhibitory concentration (MIC) is more than 50 µg/mL in the assay on Candida albicans, 50 µg/mL (≈ 104 µM) in the assay on Klebsiella pneumoniae [1], more than 50 µg/mL in assay [2] and more than 50 µg/mL with Staphylococcus aureus.
